# Experimental data: ChEMBL document CHEMBL1140269, “Amino-substituted heterocycles as isosteres of trans-cinnamides: design and synthesis of heterocyclic biaryl sulfides as potent antagonists of LFA-1/ICAM-1 binding” (Bioorg Med Chem Lett, 2005)
# Values joined by “and” are separate entries in the source; they are usually repeats but may differ in a detail not shown here. Equal entries are not always repeated.
# Molecular target: Intercellular adhesion molecule (ICAM-1), Integrin alpha-L/beta-2 (Homo sapiens, UniProt P05107+P20701)
# Experiment: Inhibitory concentration against integrin LFA-1/ICAM-1 binding complex
# Assay type: protein-complex assay
# Intercellular adhesion molecule (ICAM-1), Integrin alpha-L/beta-2, sequence (P20701 whole entry): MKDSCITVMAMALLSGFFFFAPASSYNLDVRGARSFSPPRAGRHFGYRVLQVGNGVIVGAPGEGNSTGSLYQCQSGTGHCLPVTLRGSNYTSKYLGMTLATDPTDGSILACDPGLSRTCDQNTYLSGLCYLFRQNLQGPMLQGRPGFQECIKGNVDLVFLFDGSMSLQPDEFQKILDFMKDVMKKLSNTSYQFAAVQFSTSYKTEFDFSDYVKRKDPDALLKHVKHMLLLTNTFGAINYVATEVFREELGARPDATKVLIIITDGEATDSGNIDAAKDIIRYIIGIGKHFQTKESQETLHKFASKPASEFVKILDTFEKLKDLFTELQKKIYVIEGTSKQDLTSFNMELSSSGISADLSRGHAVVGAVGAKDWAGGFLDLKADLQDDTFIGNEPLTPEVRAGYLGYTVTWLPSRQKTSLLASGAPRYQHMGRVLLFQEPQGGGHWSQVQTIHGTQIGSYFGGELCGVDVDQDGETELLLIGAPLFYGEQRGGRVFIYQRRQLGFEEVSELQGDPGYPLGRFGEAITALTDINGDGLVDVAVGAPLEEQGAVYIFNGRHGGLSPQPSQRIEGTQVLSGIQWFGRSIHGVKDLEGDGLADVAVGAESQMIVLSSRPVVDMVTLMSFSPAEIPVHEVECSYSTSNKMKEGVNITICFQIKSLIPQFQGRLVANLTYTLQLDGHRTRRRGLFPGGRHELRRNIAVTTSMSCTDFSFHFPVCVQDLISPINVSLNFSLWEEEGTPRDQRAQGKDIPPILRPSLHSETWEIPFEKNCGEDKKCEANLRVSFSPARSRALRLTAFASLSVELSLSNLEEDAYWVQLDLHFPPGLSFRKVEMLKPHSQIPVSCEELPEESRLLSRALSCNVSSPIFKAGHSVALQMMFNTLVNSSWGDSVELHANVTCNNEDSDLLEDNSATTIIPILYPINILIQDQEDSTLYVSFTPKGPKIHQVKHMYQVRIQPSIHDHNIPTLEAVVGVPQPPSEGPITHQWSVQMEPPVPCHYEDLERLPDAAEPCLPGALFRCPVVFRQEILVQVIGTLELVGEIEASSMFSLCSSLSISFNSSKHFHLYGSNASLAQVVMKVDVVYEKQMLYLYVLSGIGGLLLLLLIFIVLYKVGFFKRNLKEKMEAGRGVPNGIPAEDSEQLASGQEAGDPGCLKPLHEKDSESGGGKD
# Intercellular adhesion molecule (ICAM-1), Integrin alpha-L/beta-2, sequence (P05362 whole entry, further chain): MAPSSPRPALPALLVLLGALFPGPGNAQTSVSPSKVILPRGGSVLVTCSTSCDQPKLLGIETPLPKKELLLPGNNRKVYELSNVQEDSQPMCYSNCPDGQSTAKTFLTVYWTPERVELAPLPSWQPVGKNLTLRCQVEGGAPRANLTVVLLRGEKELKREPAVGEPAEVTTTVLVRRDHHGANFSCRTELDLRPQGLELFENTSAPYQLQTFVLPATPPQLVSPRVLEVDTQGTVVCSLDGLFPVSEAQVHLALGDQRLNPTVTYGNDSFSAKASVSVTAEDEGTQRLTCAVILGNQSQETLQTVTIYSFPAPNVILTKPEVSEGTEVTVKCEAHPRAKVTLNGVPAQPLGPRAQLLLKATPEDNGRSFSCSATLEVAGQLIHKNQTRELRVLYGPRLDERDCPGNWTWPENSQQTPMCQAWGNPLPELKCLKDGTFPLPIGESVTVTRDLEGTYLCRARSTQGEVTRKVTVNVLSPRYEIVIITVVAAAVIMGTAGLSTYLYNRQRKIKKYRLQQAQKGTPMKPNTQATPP
# Intercellular adhesion molecule (ICAM-1), Integrin alpha-L/beta-2, sequence (P05107 whole entry): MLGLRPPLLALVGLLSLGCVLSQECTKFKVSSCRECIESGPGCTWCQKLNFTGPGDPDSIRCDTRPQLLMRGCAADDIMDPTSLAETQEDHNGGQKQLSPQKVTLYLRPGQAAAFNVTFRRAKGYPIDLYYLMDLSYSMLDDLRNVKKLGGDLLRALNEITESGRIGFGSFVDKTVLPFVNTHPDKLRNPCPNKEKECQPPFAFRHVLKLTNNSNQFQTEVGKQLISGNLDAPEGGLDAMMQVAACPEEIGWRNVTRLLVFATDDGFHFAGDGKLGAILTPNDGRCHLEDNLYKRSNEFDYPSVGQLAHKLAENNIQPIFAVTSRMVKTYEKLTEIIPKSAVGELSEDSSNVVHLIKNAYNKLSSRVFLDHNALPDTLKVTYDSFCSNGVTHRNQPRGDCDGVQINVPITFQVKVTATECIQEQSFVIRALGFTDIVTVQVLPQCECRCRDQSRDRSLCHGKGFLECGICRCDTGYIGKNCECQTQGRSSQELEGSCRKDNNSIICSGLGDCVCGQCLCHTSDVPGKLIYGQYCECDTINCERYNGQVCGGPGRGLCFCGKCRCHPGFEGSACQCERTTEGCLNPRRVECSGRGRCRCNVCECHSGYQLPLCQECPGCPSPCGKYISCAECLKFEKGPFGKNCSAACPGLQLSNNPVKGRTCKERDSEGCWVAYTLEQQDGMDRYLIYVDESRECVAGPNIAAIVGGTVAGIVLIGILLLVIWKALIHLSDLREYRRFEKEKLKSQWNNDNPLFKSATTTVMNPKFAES
row,SMILES,IC50
1,COc1ccccc1Sc1ccc(-c2ccnc(N3CC[C@@H](O)C3)c2)cc1C(F)(F)F,77 nM
2,CCOC(=O)CN1CCN(c2cc(-c3ccc(Sc4ccccc4C(C)C)c(C(F)(F)F)c3)ncn2)CC1,420 nM
3,CC(C)c1ccccc1Sc1ccc(-c2coc(N3CCCCC3)n2)cc1C(F)(F)F,15000 nM
4,CC(C)c1ccccc1Sc1ccc(-c2ccnc(N3C[C@H](O)C[C@H]3C(=O)O)c2)cc1C(F)(F)F,90 nM
5,CC(C)c1ccccc1Sc1ccc(-c2ccnc(N3CCCC3)c2)cc1C(F)(F)F,250 nM
6,CC(C)c1ccccc1Sc1ccc(-c2ccnc(N3CCC(CCO)CC3)c2)cc1C(F)(F)F,160 nM
7,CC(C)c1ccccc1Sc1ccc(-c2cc(N3CCC(NC(=O)OC(C)(C)C)C3)ncn2)cc1C(F)(F)F (stereo unspecified),550 nM
8,COc1ccccc1Sc1ccc(-c2ccnc(N3CCC[C@H]3C(=O)O)c2)cc1C(F)(F)F,80 nM
9,CC(C)c1ccccc1Sc1ccc(-c2cc(N3CCC(C(=O)O)CC3)ncn2)cc1C(F)(F)F,120 nM
10,CC(=O)N1CCN(c2cc(-c3ccc(Sc4ccccc4C(C)C)c(C(F)(F)F)c3)ncn2)CC1,60 nM and 200 nM
11,CCCN1CCN(c2cc(-c3ccc(Sc4ccc5c(c4)OCCO5)c(C(F)(F)F)c3)ccn2)CC1,747 nM
12,CC(C)c1ccccc1Sc1ccc(-c2ccnc(N3CCC[C@H]3C(=O)O)c2)cc1C(F)(F)F,26 nM
13,OC1CCN(c2cc(-c3ccc(Sc4ccc5c(c4)OCCO5)c(C(F)(F)F)c3)ccn2)CC1,300 nM
14,CC(C)c1ccccc1Sc1ccc(-c2cc(N3CCC(O)CC3)ncn2)cc1C(F)(F)F,228 nM
15,CC(C)c1ccccc1Sc1ccc(-c2cc(N3CCOCC3)ncn2)cc1C(F)(F)F,80 nM and 320 nM
16,OCC1CCN(c2cc(-c3ccc(Sc4ccc5c(c4)OCCO5)c(C(F)(F)F)c3)ccn2)CC1,390 nM
17,COc1ccccc1Sc1ccc(-c2ccnc(N3CCC(C(N)=O)CC3)c2)cc1C(F)(F)F,140 nM
18,COc1ccccc1Sc1ccc(-c2ccnc(N3CC[C@@H](NC(C)=O)C3)c2)cc1C(F)(F)F,88 nM
19,CCN(C)c1cc(-c2ccc(Sc3ccccc3C(C)C)c(C(F)(F)F)c2)ncn1,680 nM
20,CC(=O)N[C@@H]1CCN(c2cc(-c3ccc(Sc4ccccc4C(C)C)c(C(F)(F)F)c3)ccn2)C1,62 nM
21,CC(C)c1ccccc1Sc1ccc(-c2cc(N3CCCC(C(N)=O)C3)ncn2)cc1C(F)(F)F (stereo unspecified),340 nM

row,SMILES,IC50
1,CC(=O)N[C@@H]1CCN(c2cc(-c3ccc(Sc4ccc5c(c4)OCCO5)c(C(F)(F)F)c3)ccn2)C1,112 nM
2,CC(C)c1ccccc1Sc1ccc(-c2ccnc(N3CCC[C@H]3CO)c2)cc1C(F)(F)F (stereo in doubt; 16x),264 nM
3,COc1ccccc1Sc1ccc(-c2ccnc(N3C[C@H](O)C[C@H]3C(=O)O)c2)cc1C(F)(F)F,214 nM
4,CC(C)c1ccccc1Sc1ccc(-c2ccnc(N3CC[C@@H](O)[C@H](C(=O)O)C3)c2)cc1C(F)(F)F,43 nM
5,O=C(O)C1CCCN(c2cc(-c3ccc(Sc4ccc5c(c4)OCCO5)c(C(F)(F)F)c3)ccn2)C1 (stereo in doubt),30 nM
6,CC(C)c1ccccc1Sc1ccc(-c2ccnc(N3CCCC(C(=O)O)C3)c2)cc1C(F)(F)F (stereo in doubt),30 nM
7,CC(C)c1ccccc1Sc1ccc(-c2cc(N3CCC(CCO)CC3)ncn2)cc1C(F)(F)F,230 nM
8,CC(C)c1ccccc1Sc1ccc(-c2cc(N3CCC(C(N)=O)CC3)ncn2)cc1C(F)(F)F,230 nM
9,CC(C)c1ccccc1Sc1ccc(-c2cc(N(C)C(C)C)ncn2)cc1C(F)(F)F,740 nM
10,COc1ccccc1Sc1ccc(-c2ccnc(N3CCC(CCO)CC3)c2)cc1C(F)(F)F,111 nM
11,CCOC(=O)N1CCN(c2cc(-c3ccc(Sc4ccccc4C(C)C)c(C(F)(F)F)c3)ncn2)CC1,470 nM
12,O=C(O)C1CCN(c2cc(-c3ccc(Sc4ccc5c(c4)OCCO5)c(C(F)(F)F)c3)ccn2)CC1,71 nM and 50 nM
13,CC(=O)N1CCN(c2cc(-c3ccc(Sc4ccc5c(c4)OCCO5)c(C(F)(F)F)c3)ccn2)CC1,131 nM and 60 nM
14,CC(C)c1ccccc1Sc1ccc(-c2ccnc(N3CCC(C(=O)O)CC3)c2)cc1C(F)(F)F,42 nM and 50 nM
15,CC(C)c1ccccc1Sc1ccc(-c2ccnc(N3CCC(O)CC3)c2)cc1C(F)(F)F,76 nM
16,CC(=O)NC1CCN(c2cc(-c3ccc(Sc4ccccc4C(C)C)c(C(F)(F)F)c3)ncn2)C1 (stereo unspecified),220 nM
17,CCN(CC)C(=O)C1CCCN(c2cc(-c3ccc(Sc4ccccc4C(C)C)c(C(F)(F)F)c3)ncn2)C1 (stereo unspecified),620 nM
18,CC(C)c1ccccc1Sc1ccc(-c2cc(N3CCC(c4nn[nH]n4)CC3)ncn2)cc1C(F)(F)F,108 nM
19,CC(C)c1ccccc1Sc1ccc(-c2ccnc(N3CCC(c4nnn[nH]4)CC3)c2)cc1C(F)(F)F,51 nM
20,O[C@@H]1CCN(c2cc(-c3ccc(Sc4ccc5c(c4)OCCO5)c(C(F)(F)F)c3)ccn2)C1,126 nM
21,CC(C)c1ccccc1Sc1ccc(-c2csc(NCCN3CCOCC3)n2)cc1C(F)(F)F,12000 nM

row,SMILES,IC50
1,O=CN1CCN(c2cc(-c3ccc(Sc4ccc5c(c4)OCCO5)c(C(F)(F)F)c3)ccn2)CC1,351 nM
2,CC(C)c1ccccc1Sc1ccc(-c2ccnc(N3CCC(C(N)=O)CC3)c2)cc1C(F)(F)F,73 nM
3,CC(C)c1ccccc1Sc1ccc(-c2ccnc(N3CCCCC3)c2)cc1C(F)(F)F,1000 nM
4,CC(C)c1ccccc1Sc1ccc(-c2cc(N3CC[C@@H](O)C3)ncn2)cc1C(F)(F)F,158 nM
5,CC(=O)N1CCN(c2cc(-c3ccc(Sc4ccccc4C(C)C)c(C(F)(F)F)c3)ccn2)CC1,93 nM and 60 nM
6,CCCN1CCN(c2cc(-c3ccc(Sc4ccccc4OC)c(C(F)(F)F)c3)ccn2)CC1,900 nM
7,COc1ccccc1Sc1ccc(-c2ccnc(N3CCN(C=O)CC3)c2)cc1C(F)(F)F,186 nM
8,O=C(O)[C@@H]1C[C@@H](O)CN1c1cc(-c2ccc(Sc3ccc4c(c3)OCCO4)c(C(F)(F)F)c2)ccn1,192 nM
9,COc1ccccc1Sc1ccc(-c2ccnc(N3CCC[C@@H]3CO)c2)cc1C(F)(F)F,331 nM
10,CC(C)c1ccccc1Sc1ccc(-c2cc(N3CCN(c4ccccn4)CC3)ncn2)cc1C(F)(F)F,1270 nM
11,OC[C@H]1CCCN1c1cc(-c2ccc(Sc3ccc4c(c3)OCCO4)c(C(F)(F)F)c2)ccn1,510 nM
12,NC(=O)C1CCN(c2cc(-c3ccc(Sc4ccc5c(c4)OCCO5)c(C(F)(F)F)c3)ccn2)CC1,140 nM
13,CC(C)c1ccccc1Sc1ccc(-c2ccnc(N3CCC(CO)CC3)c2)cc1C(F)(F)F,160 nM
14,OCCC1CCN(c2cc(-c3ccc(Sc4ccc5c(c4)OCCO5)c(C(F)(F)F)c3)ccn2)CC1,132 nM
15,CC(=O)N(C)[C@@H]1CCN(c2cc(-c3ccc(Sc4ccc5c(c4)OCCO5)c(C(F)(F)F)c3)ccn2)C1,168 nM
16,COc1ccccc1Sc1ccc(-c2ccnc(N3CCC(CO)CC3)c2)cc1C(F)(F)F,80 nM
17,CC(=O)N(C)[C@@H]1CCN(c2cc(-c3ccc(Sc4ccccc4C(C)C)c(C(F)(F)F)c3)ccn2)C1,112 nM
18,O=C(O)C1CCCN(c2cc(-c3ccc(Sc4ccc5c(c4)OCCO5)c(C(F)(F)F)c3)ccn2)C1 (stereo in doubt; 18L),76 nM
19,CC(C)c1ccccc1Sc1ccc(-c2ccnc(N3CCCC(C(=O)O)C3)c2)cc1C(F)(F)F (stereo in doubt; 16k),43 nM
20,O=C(O)[C@@H]1CCCN1c1cc(-c2ccc(Sc3ccc4c(c3)OCCO4)c(C(F)(F)F)c2)ccn1,147 nM
21,CC1CN(c2cc(-c3ccc(Sc4ccccc4C(C)C)c(C(F)(F)F)c3)ncn2)CC(C)O1 (stereo unspecified),490 nM

row,SMILES,IC50
1,COCCCNc1nc(-c2ccc(Sc3ccccc3C(C)C)c(C(F)(F)F)c2)cs1,10500 nM
2,CC(C)c1ccccc1Sc1ccc(-c2coc(N3CCOCC3)n2)cc1C(F)(F)F,3600 nM
3,CC(C)c1ccccc1Sc1ccc(-c2cc(N3CCCC3CO)ncn2)cc1C(F)(F)F (stereo in doubt),480 nM
4,COc1ccccc1Sc1ccc(-c2ccnc(N3CC[C@@H](N(C)C(C)=O)C3)c2)cc1C(F)(F)F,88 nM
5,CC(C)c1ccccc1Sc1ccc(-c2cc(N3CCCC3CO)ncn2)cc1C(F)(F)F (stereo in doubt; 10w),680 nM
6,COc1ccccc1Sc1ccc(-c2ccnc(N3CCCN(C(C)=O)CC3)c2)cc1C(F)(F)F,168 nM
7,COc1ccccc1Sc1ccc(-c2ccnc(N3CCC(O)CC3)c2)cc1C(F)(F)F,128 nM
8,COc1ccccc1Sc1ccc(-c2ccnc(N3CCCC(C(=O)O)C3)c2)cc1C(F)(F)F (stereo unspecified),122 nM
9,COc1ccccc1Sc1ccc(-c2ccnc(N3CCC(C(=O)O)CC3)c2)cc1C(F)(F)F,113 nM
10,CC(=O)N1CCCN(c2cc(-c3ccc(Sc4ccc5c(c4)OCCO5)c(C(F)(F)F)c3)ccn2)CC1,365 nM
11,CC(C)c1ccccc1Sc1ccc(-c2cc(NCCCn3ccnc3)ncn2)cc1C(F)(F)F,760 nM
12,COc1ccccc1Sc1ccc(-c2ccnc(N3CCN(C(C)=O)CC3)c2)cc1C(F)(F)F,121 nM
13,CCN(C(C)=O)C1CCN(c2cc(-c3ccc(Sc4ccccc4C(C)C)c(C(F)(F)F)c3)ncn2)C1 (stereo unspecified),300 nM
14,CC(=O)N1CCN(C(=O)/C=C/c2ccc(Sc3ccccc3C(C)C)c(C(F)(F)F)c2)CC1,60 nM
15,CC(C)c1ccccc1Sc1ccc(-c2ccnc(N3CCN(C=O)CC3)c2)cc1C(F)(F)F,165 nM
16,CC(C)c1ccccc1Sc1ccc(-c2ccnc(N3CCC(O)C3)c2)cc1C(F)(F)F (stereo unspecified),93 nM
17,CC(C)c1ccccc1Sc1ccc(-c2cc(N3CCCC(CO)C3)ncn2)cc1C(F)(F)F (stereo unspecified),230 nM
18,CC(C)c1ccccc1Sc1ccc(-c2ccnc(N3CCC[C@H]3CO)c2)cc1C(F)(F)F (stereo in doubt),480 nM

# Molecular target: Intercellular adhesion molecule (ICAM-1), Integrin alpha-L/beta-2 (Homo sapiens) (UniProt P20701+P05362+P05107)
# Experiment: Inhibitory activity against ICAM-1/integrin LFA-1 binding complex at 1 uM concentration
# Assay type: protein-complex assay
row,SMILES,inhibition [%]
1,CC(C)c1ccccc1Sc1ccc(-c2ccnc(N3CCCC(C)(C)C3)c2)cc1C(F)(F)F,22
2,CCCC1CCN(c2cc(-c3ccc(Sc4ccccc4C(C)C)c(C(F)(F)F)c3)ccn2)CC1,8
3,CC1CCN(c2cc(-c3ccc(Sc4ccccc4C(C)C)c(C(F)(F)F)c3)ccn2)CC1,40
4,CC(C)c1ccccc1Sc1ccc(-c2ccnc(N3CCN(C4CCCCC4)CC3)c2)cc1C(F)(F)F,21
5,CC(C)c1ccccc1Sc1ccc(-c2ccnc(N3CCN(c4cnccn4)CC3)c2)cc1C(F)(F)F,82
